# Experimental data from PMC7830893, “Four Novel Phenanthrene Derivatives with α-Glucosidase Inhibitory Activity from Gastrochilus bellinus” (Molecules, 2021).
# “Also recorded” adds a separate entry of the source.
# Experiments:
# α-glucosidase [1] = test: α-glucosidase enzyme kinetic study (Lineweaver–Burk and secondary plots); assay type: biochemical; settings: for mode of enzyme inhibition: Lineweaver–Burk plot
# Protocol: The enzyme kinetics parameters (Km and Vmax) were determined by analyzing the double reciprocal Lineweaver–Burk plot (1/V vs. 1/[S]). Each experiment was carried out by varying the concentration of pNPG (2.0, 1.0, 0.5, and 0.25 mM) in the absence and presence of different concentrations of the test sample. The reaction was monitored at 405 nm by a microplate reader every 5 min for a total time of 25 min. Each experiment was performed in triplicate. […] For compound 3, secondary plots were plots of the inverted values of Km (1/Km) as a function of inhibitor concentration. The inhibition constant (Ki) was then calculated from the intersection point.
# α-glucosidase [2] = test: α-glucosidase inhibitory assay (pNPG, absorbance at 405 nm); assay type: biochemical; settings: for α-glucosidase inhibitory activity compared with acarbose: comparison with the drug acarbose; for IC50: pNPG substrate, 37 °C, mean ± SD, triplicate
# Protocol: The α-glucosidase enzyme inhibition assay was carried out according to the method in our previous report. The inhibitory activity was determined by measuring the p-nitrophenol, a yellow color substance that can be monitored at 405 nm, released from p-nitrophenyl-α-D-glucopyranoside (pNPG) by the α-glucosidase enzyme. The test samples were initially dissolved in 50% DMSO, and then, 10 µL of the sample solution and 40 µL of 0.1 unit/mL α-glucosidase were incubated at 37 °C for 10 min. After that, to start the reaction, 50 µL of 2 mM pNPG was added to the mixture and incubated at 37 °C for 20 min. One hundred microliters of 1 M Na2CO3 was added to stop the reaction, and then, the absorbance was measured at 405 nm. […] Each experiment was performed in triplicate.
Structure (SMILES),α-glucosidase inhibitory activity compared with acarbose (α-glucosidase [2]),IC50 (α-glucosidase [2]) [µM],other results
"C[C@H]1O[C@H](O[C@H]2[C@H](O)[C@@H](O)[C@@H](O[C@H]3[C@H](O)[C@@H](O)C(O)O[C@@H]3CO)O[C@@H]2CO)[C@H](O)[C@@H](O)[C@@H]1N[C@H]1C=C(CO)[C@@H](O)[C@H](O)[C@H]1O (some centres unmarked) [Acarbose, acarbose, reference compound]",,,mode of enzyme inhibition (α-glucosidase [1]): competitive inhibition; Vmax (α-glucosidase [1]; inhibitor dose 387 µM): 0.1 ∆ A405/min; Vmax (α-glucosidase [1]; inhibitor dose 744 µM): 0.1 ∆ A405/min
"COc1c(O)cc2c3c1COc1c(Cc4ccc(O)cc4)c(O)cc(c1-3)CC2 [Compound 1, gastrobellinol A]",higher activity than the drug acarbose; also recorded: higher α-glucosidase inhibitory activity than acarbose,88.7 ± 4.1,
"COc1cc2c3c(ccc4cc(O)c(OC)c(c43)CO2)c1Cc1ccc(O)cc1 [Compound 2, gastrobellinol B]",higher activity than the drug acarbose; also recorded: higher α-glucosidase inhibitory activity than acarbose,97.8 ± 3.1,
"COc1c(O)cc2ccc3c(Cc4ccc(O)cc4)c(O)cc4c3c2c1CO4 [Compound 3, gastrobellinol C]",higher activity than the drug acarbose; also recorded: higher α-glucosidase inhibitory activity than acarbose,45.9 ± 2.8,"mode of enzyme inhibition (α-glucosidase [1]): competitive inhibition; also recorded: competitive inhibitor; Ki (α-glucosidase [1]; from secondary plot): 87.3 µM; Vmax (α-glucosidase [1]; inhibitor dose 20 µM, pNPG 0.25–2.0 mM): 0.1 ∆ A405/min; Vmax (α-glucosidase [1]; inhibitor dose 40 µM, pNPG 0.25–2.0 mM): 0.1 ∆ A405/min; maximum velocity (Vmax) (α-glucosidase [1]; unchanged at 20 µM and 40 µM compound 3): 0.1 A405/min"
"COc1cc(/C=C/C=O)ccc1O [Compound 7, coniferyl aldehyde]",higher activity than the drug acarbose; also recorded: higher α-glucosidase inhibitory activity than acarbose,381 ± 9.3,
"O=Cc1ccc(O)cc1 [Compound 8, 4-hydroxybenzaldehyde]",higher α-glucosidase inhibitory activity than acarbose,,
"COc1cc2ccc3cc(O)c(OC)c4c(=O)oc(c1)c2c34 [Compound 9, agrostophyllone]",higher activity than the drug acarbose,281 ± 15.9,
"COc1c(O)cc2c3c1COc1cc(O)c(Cc4ccc(O)cc4)c(c1-3)CC2 [Compound 13, 1-(4′-hydroxybenzyl)-imbricartin]",higher activity than the drug acarbose; also recorded: higher α-glucosidase inhibitory activity than acarbose,53.7 ± 12.5,
"COc1c(O)cc2c3c1COc1cc(O)cc(c1-3)CC2 [Compound 15, imbricatin]",higher activity than the drug acarbose; also recorded: higher α-glucosidase inhibitory activity than acarbose,301 ± 6.6,
